“Also recorded” adds a separate entry of the source.
Legend:
NADPH oxidase = NADPH oxidase activity, lucigenin-enhanced chemiluminescence assay in mesenteric arteries; format: cell-based, mice; conditions: after stimulation with Angiotensin II
Experimental: Vessels were homogenized in a buffer containing protease inhibitors (mmol/L: 20 monobasic potassium phosphate, 1 EGTA, 0.01 aprotinin, 0.01 leupeptin, 0.01 pepstatin, 0.5 phenylmethylsulfonyl fluoride, pH 7.0). Protein content was measured in an aliquot of the homogenate by Bradford method. In some experiments, cells and vessels were pre-incubated with pharmacological inhibitors before measurements. The reaction was started by the addition of NADPH (0.1 mmol/l) and lucigenin (5 μmol/l) to each well. The chemiluminescence was measured using Tecan Infinite Pro M200 multimode microplate at 37° C.
Vessels were pre-treated with single anthocyanins (50 μg/mL) for 1 hours and then stimulated with Angiotensin II for 15 minutes prior to the acquisition. […] Data are expressed as increase of chemiluminescence per minute.

mice mesenteric arteries [1] = assay: Total ROS production by Dihydrorhodamine 123 (DHR123) in mouse vessels; format: cell-based; conditions: vessels stimulated with Angiotensin II
Experimental: (§1) Dihydroethidium (DHE, Life Technologies) was used to evaluate production of reactive oxygen species (ROS) in mouse mesenteric arteries, as previously described. Briefly, vessels were incubated with 5 μM of DHE for 20 min and subsequently observed under a fluorescence microscope (Zeiss). Images were acquired by a digital camera system (Olympus Soft Imaging Solutions). […] After treatment, vessels were incubated with Krebs solution containing 5 μM DHR123 for 30 min at 37° C., and then washed two times with PBS prior to fluorescence measurement using a fluorescence microplate reader (TECAN infinite 200 Pro).

mice mesenteric arteries [2] = assay: Vascular reactivity of phenylephrine-precontracted mice mesenteric arteries; format: cell-based; conditions: for direct dose-dependent vasorelaxation compared with Healthberry 865 / vasorelaxation reached: single anthocyanins; for direct dose-dependent vasorelaxation compared with Healthberry 865: 1-100 μg/mL; for vasorelaxation reached: dose-response curves 1-100 μg/mL
Experimental: Aorta, carotid, femoral arteries and second-order branches of the mesenteric arterial tree were removed from mice to perform vascular studies. […] First, an analysis of vascular reactivity curves was performed. In particular, vasoconstriction was assessed with 80 mmol/L of KCI or with increasing doses of phenylephrine (from 10^-9 M to 10^-6 M) in control conditions. […] Caution was taken to avoid endothelial damage; functional integrity was reflected by the response to acetylcholine (from 10^-9 M to 10^-6 M).

mice mesenteric arteries [3] = assay: Total ROS production by dihydroethidium (DHE) in Angiotensin II-stimulated mice mesenteric arteries; format: cell-based; conditions: pre-treatment 50 μg/mL for 1 hour, then Angiotensin II for 15 minutes
Experimental: as §1

mice mesenteric arteries [4] = assay: Evaluation of NO production by DAF-FM in mice mesenteric arteries; format: cell-based; conditions: single anthocyanins 50 μg/mL
Experimental: Production of NO was assessed as previously described (Carrizzo et al. 2016). […] Mesenteric segments were cut in 5-μm thick sections, observed under a fluorescence microscope, subsequently counterstained with haematoxylin and eosin and observed under a light microscope.
Scale bar, 50 μm. E) Semiquantitative analyses of immunoblots of mice mesenteric arteries treated with HB (100 μg/mL) alone, or HB plus Akt inhibitor or LY294002, columns are the mean±SEM of three independent experiments. Statistical analyses were performed using two-way ANOVA followed Bonferroni post-hoc test. *p<0.05; **p<0.01, ***p<0.001.

Row | Compound | NADPH oxidase (NOX) activity (NADPH oxidase) | total ROS production (DHR123) (mice mesenteric arteries [1]) | direct dose-dependent vasorelaxation compared with Healthberry 865 (mice mesenteric arteries [2]) | Angiotensin II-induced ROS formation (DHE) (mice mesenteric arteries [3]) | vasorelaxation reached (mice mesenteric arteries [2]) | nitric oxide production (DAF-FM fluorescence) (mice mesenteric arteries [4]) | vasorelaxant effect in presence of Akt inhibitor (mice mesenteric arteries [2]; increasing doses, Akt inhibitor) | vasorelaxant effect in presence of PI3K inhibitor LY294002 (mice mesenteric arteries [2]; increasing doses, pre-treatment with LY294002) | vasorelaxant effect in presence of L-NAME (mice mesenteric arteries [2]; increasing doses, pre-treatment with eNOS inhibitor L-NAME) | vasorelaxant effect in presence of Dorsomorphin (mice mesenteric arteries [2]; increasing doses, selective AMPK inhibitor Dorsomorphin)
1 | COc1cc(-c2[o+]c3cc(O)cc(O)c3cc2O[C@@H]2O[C@H](CO)[C@H](O)[C@H](O)[C@H]2O)cc(OC)c1O [MAL3-gal, Malvidin-3-galactoside] | able to reduce NOX activity | a similar effect was reproduced | none of the single anthocyanins was able to evoke a dose-dependent vasorelaxation comparable | able to reproduce the antioxidant action of Healthberry 865® |  |  |  |  |  | 
2 | COc1cc(-c2[o+]c3cc(O)cc(O)c3cc2O[C@@H]2O[C@H](CO)[C@@H](O)[C@H](O)[C@H]2O)cc(OC)c1O [MAL3-glu, Malvidin-3-glucoside] | able to reduce NOX activity; also recorded: most powerful anthocyanins closer to the potent effect of Healthberry 865® | a similar effect was reproduced | none of the single anthocyanins was able to evoke a dose-dependent vasorelaxation comparable | able to reproduce the antioxidant action of Healthberry 865® |  |  |  |  |  | 
3 | C[C@@H]1O[C@@H](OC[C@H]2O[C@@H](Oc3cc4c(O)cc(O)cc4[o+]c3-c3ccc(O)c(O)c3)[C@H](O)[C@@H](O)[C@@H]2O)[C@H](O)[C@H](O)[C@H]1O [C3-rut, Cyanidin-3-rutinoside] | able to reduce NOX activity | a similar effect was reproduced | none of the single anthocyanins was able to evoke a dose-dependent vasorelaxation comparable; also recorded: vasorelaxant effects evoked by DP3-gal, C3-rut and DP3-ara were observed | able to reproduce the antioxidant action of Healthberry 865® | ~36,5% |  |  |  |  | 
4 | OC[C@H]1O[C@@H](Oc2cc3c(O)cc(O)cc3[o+]c2-c2cc(O)c(O)c(O)c2)[C@H](O)[C@@H](O)[C@H]1O [DP3-gal, Delphinidin-3-galactoside] |  |  | none of the single anthocyanins was able to evoke a dose-dependent vasorelaxation comparable; also recorded: vasorelaxant effects evoked by DP3-gal, C3-rut and DP3-ara were observed |  | about 32,5% |  |  |  |  | 
5 | OC[C@H]1O[C@@H](Oc2cc3c(O)cc(O)cc3[o+]c2-c2ccc(O)c(O)c2)[C@H](O)[C@@H](O)[C@H]1O [C3-gal, Cyanidin-3-galactoside] |  |  | very similar to that induced by Healthberry 865® |  |  | significant increase of nitric oxide production | did not inhibit C3-gal vascular action | did not inhibit C3-gal vascular action | significantly reduced its vasorelaxant properties | completely lost its vasorelaxant capability
6 | Oc1cc(O)c2cc(O[C@H]3OC[C@H](O)[C@H](O)[C@H]3O)c(-c3cc(O)c(O)c(O)c3)[o+]c2c1 [DP3-ara, Delphinidin-3-arabinoside] |  |  | none of the single anthocyanins was able to evoke a dose-dependent vasorelaxation comparable; also recorded: vasorelaxant effects evoked by DP3-gal, C3-rut and DP3-ara were observed |  |  |  |  |  |  | 
7 | OC[C@H]1O[C@@H](Oc2cc3c(O)cc(O)cc3[o+]c2-c2cc(O)c(O)c(O)c2)[C@H](O)[C@@H](O)[C@@H]1O [DP3-glu, Delphinidin-3-glucoside] | able to reduce NOX activity | a similar effect was reproduced | none of the single anthocyanins was able to evoke a dose-dependent vasorelaxation comparable | able to reproduce the antioxidant action of Healthberry 865® |  |  |  |  |  | 
8 | Peonidin-3-galactoside [PEO3-gal] | able to reduce NOX activity | a similar effect was reproduced | none of the single anthocyanins was able to evoke a dose-dependent vasorelaxation comparable | able to reproduce the antioxidant action of Healthberry 865® |  |  |  |  |  | 
9 | COc1cc(-c2[o+]c3cc(O)cc(O)c3cc2O[C@@H]2O[C@H](CO)[C@@H](O)[C@H](O)[C@H]2O)cc(O)c1O [PT3-glu, Petunidin-3-glucoside] |  |  | none of the single anthocyanins was able to evoke a dose-dependent vasorelaxation comparable |  |  |  |  |  |  | 
10 | OC[C@H]1O[C@@H](Oc2cc3c(O)cc(O)cc3[o+]c2-c2ccc(O)c(O)c2)[C@H](O)[C@@H](O)[C@@H]1O [C3-glu, Cyanidin-3-glucoside] | able to reduce NOX activity; also recorded: most powerful anthocyanins closer to the potent effect of Healthberry 865® | a similar effect was reproduced | none of the single anthocyanins was able to evoke a dose-dependent vasorelaxation comparable | able to reproduce the antioxidant action of Healthberry 865® |  |  |  |  |  | 
